The target of this experiment is T1, JAK3 (recombinant human kinase domain; h-jak3(810-1124)) (Homo sapiens, UniProt P52333).
T1 construct: h-jak3(810- 1124)-sf9-c; made in house; host or cells: Sf9 insect cells
The experiment in a line: Determination of IC50 of Janus Kinase (JAK) inhibition: JAK3, radioactive end-point assay with 33P-ATP. Format: biochemical. The conditions noted are these: JAK3 kinase domain; ATP 1.5 uM, peptide 50 uM, 20 minutes, room temperature, 10% DMSO; read-out: Ic50 h-jak3(810-1124)-sf9-c:no additive.

T1 sequence (P52333 810-1124): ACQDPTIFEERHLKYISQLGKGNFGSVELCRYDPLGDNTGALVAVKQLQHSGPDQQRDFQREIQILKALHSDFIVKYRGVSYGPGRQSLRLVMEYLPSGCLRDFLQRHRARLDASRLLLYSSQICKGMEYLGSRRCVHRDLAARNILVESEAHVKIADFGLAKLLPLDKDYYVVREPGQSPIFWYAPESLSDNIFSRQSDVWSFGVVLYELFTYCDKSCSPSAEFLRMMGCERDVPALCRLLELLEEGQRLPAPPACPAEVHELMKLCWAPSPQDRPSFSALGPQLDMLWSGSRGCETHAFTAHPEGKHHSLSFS

For the molecule `C[C@H](NC(=O)c1c[nH]c2ncc(-c3ccc(C(=O)NCc4cccc(C#N)c4)s3)nc12)C(C)(C)C` [Example I-227, 2-[5-(3-Cyano-benzylcarbamoyl)-thiophen-2-yl]-5H-pyrrolo[2,3-b]pyrazine-7-carboxylic acid ((S)-1,2,2-trimethyl-propyl)-amide], the half-maximal inhibitory concentration (IC50) (commonly the midpoint of a concentration-inhibition curve) worked out at 10.6 nM.
For `COc1cccc(Oc2cnc3[nH]cc(C(=O)NC(C)C)c3n2)c1` [Example I-229, 2-(3-Methoxy-phenoxy)-5H-pyrrolo[2,3-b]pyrazine-7-carboxylic acid isopropylamide], the half-inhibitory concentration (IC50) came out at 184 nM.
Turning to `CC(C)NC(=O)c1c[nH]c2ncc(Oc3cccc(OC(F)(F)F)c3)nc12` [Example I-230, 2-(3-Trifluoromethoxy-phenoxy)-5H-pyrrolo[2,3-b]pyrazine-7-carboxylic acid isopropylamide], the 50% inhibitory concentration (IC50) turned out to be 2610 nM.
Turning to `CC(C)NC(=O)c1c[nH]c2ncc(Oc3cccc(C(C)(C)C)c3)nc12` [Example I-231, 2-(3-tert-Butyl-phenoxy)-5H-pyrrolo[2,3-b]pyrazine-7-carboxylic acid isopropylamide], the IC50 turned out to be 4220 nM.
`CC(C)NC(=O)c1c[nH]c2ncc(Oc3cccc(C(C)C)c3)nc12` [Example I-234, 2-(3-Isopropyl-phenoxy)-5H-pyrrolo[2,3-b]pyrazine-7-carboxylic acid isopropylamide]: the IC50 is 980 nM.
On to `CC(C)NC(=O)c1c[nH]c2ncc(Oc3cccc(C(F)(F)F)c3)nc12` [Example I-235, 2-(3-Trifluoromethyl-phenoxy)-5H-pyrrolo[2,3-b]pyrazine-7-carboxylic acid isopropylamide], for which the IC50 is 784 nM.
For `CC(C)NC(=O)c1c[nH]c2ncc(Oc3ccccc3C(F)(F)F)nc12` [Example I-236, 2-(2-Trifluoromethyl-phenoxy)-5H-pyrrolo[2,3-b]pyrazine-7-carboxylic acid isopropylamide], the IC50 was determined as 2960 nM.
`CC(C)NC(=O)c1c[nH]c2ncc(Oc3ccccc3Cc3ccccc3)nc12` [Example I-237, 2-(2-Benzyl-phenoxy)-5H-pyrrolo[2,3-b]pyrazine-7-carboxylic acid isopropylamide]: the IC50 stood at 5360 nM.
`CCc1ccccc1Oc1cnc2[nH]cc(C(=O)NC(C)C)c2n1` [Example I-238, 2-(2-Ethyl-phenoxy)-5H-pyrrolo[2,3-b]pyrazine-7-carboxylic acid isopropylamide]: the IC50 came out at 3850 nM.
Regarding `CC(C)NC(=O)c1c[nH]c2ncc(Oc3cccc4c3CCCC4)nc12` [Example I-239, 2-(5,6,7,8-Tetrahydro-naphthalen-1-yloxy)-5H-pyrrolo[2,3-b]pyrazine-7-carboxylic acid isopropylamide], the IC50 was found to be 5200 nM.
Consider `CC(C)NC(=O)c1c[nH]c2ncc(Oc3ccc4c(c3)CCCC4)nc12` [Example I-240, 2-(5,6,7,8-Tetrahydro-naphthalen-2-yloxy)-5H-pyrrolo[2,3-b]pyrazine-7-carboxylic acid isopropylamide], for which the half-maximal inhibitory concentration (IC50) was 315 nM.
As to `CC(C)NC(=O)c1c[nH]c2ncc(Oc3cccc4ccccc34)nc12` [Example I-241, 2-(Naphthalen-1-yloxy)-5H-pyrrolo[2,3-b]pyrazine-7-carboxylic acid isopropylamide], the 50% inhibitory concentration (IC50) is 677 nM.
In the case of `CC(C)NC(=O)c1c[nH]c2ncc(Oc3ccc4ccccc4c3)nc12` [Example I-242, 2-(Naphthalen-2-yloxy)-5H-pyrrolo[2,3-b]pyrazine-7-carboxylic acid isopropylamide], the IC50 came out at 1180 nM.
On to `CC(C)NC(=O)c1c[nH]c2ncc(Oc3cccc(Cl)c3)nc12` [Example I-243, 2-(3-Chloro-phenoxy)-5H-pyrrolo[2,3-b]pyrazine-7-carboxylic acid isopropylamide], for which the IC50 came out at 310 nM.
Regarding `CCNC(=O)c1c[nH]c2ncc(Oc3cccc(Cl)c3)nc12` [Example I-244, 2-(3-Chloro-phenoxy)-5H-pyrrolo[2,3-b]pyrazine-7-carboxylic acid ethylamide], the IC50 was 1070 nM.
